According to ChEMBL document CHEMBL1154302, “Cytotoxic acacic acid glycosides from the roots of Albizia coriaria” (J Nat Prod, 2009):

Tests used:
[1] = tested on: HT-29; assay: Cytotoxicity against human HT-29 cells after 1 hr by MTT assay; format: functional, cell-based; conditions: HT-29, 1 h
[2] = tested on: HCT-116; assay: Cytotoxicity against human HCT116 cells after 1 hr by MTT assay; format: functional, cell-based; conditions: HCT-116, 1 h

Structure (SMILES) | IC50 [1] [nM] | IC50 [2] [nM]
C=C[C@](C)(CC/C=C(\C)C(=O)O[C@H]1[C@H](O)[C@@H](O)[C@H](O[C@](C)(C=C)CC/C=C(\C)C(=O)O[C@H]2[C@H](O)[C@@H](O)[C@H](O[C@](C)(C=C)CC/C=C(/C)C(=O)O[C@H]3C[C@]4(C(=O)O[C@@H]5O[C@H](CO)[C@@H](O)[C@H](O)[C@H]5O[C@@H]5O[C@@H](C)[C@H](O[C@@H]6O[C@@H](CO)[C@H](O)[C@H]6O)[C@@H](O[C@@H]6O[C@H](CO)[C@@H](O)[C@H](O)[C@H]6O)[C@H]5O)[C@H](O)C[C@]5(C)C(=CC[C@@H]6[C@@]7(C)CC[C@H](O[C@@H]8O[C@H](CO[C@@H]9O[C@H](C)[C@H](O)[C@H](O)[C@H]9O)[C@@H](O)[C@H](O)[C@H]8O[C@@H]8O[C@H](CO)[C@@H](O)[C@H](O)[C@H]8O)C(C)(C)C7CC[C@]65C)[C@@H]4CC3(C)C)O[C@@H]2C)O[C@@H]1C)O[C@@H]1O[C@H](C)[C@@H](O)[C@H](O)[C@H]1O (some centres undefined) [CORIARIOSIDE A] | 6700 | 4200
CC(=O)O[C@H]1C(=O)[C@@]2(C)[C@H]([C@H](OC(=O)c3ccccc3)[C@]3(O)C[C@H](OC(=O)[C@H](O)[C@@H](NC(=O)c4ccccc4)c4ccccc4)C(C)=C1C3(C)C)[C@]1(OC(C)=O)CO[C@@H]1C[C@@H]2O [PACLITAXEL] | 3.4 | 3.5
